Experimental data from patent US9096596B2 (Janssen Pharmaceutica NV, priority 2013, dated 2015).

Biological target: P2X7 (Homo sapiens (Human), UniProt Q99572)
Experiment: P2X7 antagonism in human PBMCs (IL-1β release, ELISA)
Format: cell-based
Conditions: test compound 10 μM, IL-1β release in human PBMCs, LPS 30 ng/ml + Bz-ATP 0.5 mM, read-out: PBMC 10 μM (% control)
Procedure: Human blood was collected using a blood donor program. […] Cells were incubated for an additional 1.5 hours. […] In Table 2, when the data cell has been left blank, it is intended to mean that the compound was not tested in that assay.

Chain of P2X7 (Q99572 whole entry): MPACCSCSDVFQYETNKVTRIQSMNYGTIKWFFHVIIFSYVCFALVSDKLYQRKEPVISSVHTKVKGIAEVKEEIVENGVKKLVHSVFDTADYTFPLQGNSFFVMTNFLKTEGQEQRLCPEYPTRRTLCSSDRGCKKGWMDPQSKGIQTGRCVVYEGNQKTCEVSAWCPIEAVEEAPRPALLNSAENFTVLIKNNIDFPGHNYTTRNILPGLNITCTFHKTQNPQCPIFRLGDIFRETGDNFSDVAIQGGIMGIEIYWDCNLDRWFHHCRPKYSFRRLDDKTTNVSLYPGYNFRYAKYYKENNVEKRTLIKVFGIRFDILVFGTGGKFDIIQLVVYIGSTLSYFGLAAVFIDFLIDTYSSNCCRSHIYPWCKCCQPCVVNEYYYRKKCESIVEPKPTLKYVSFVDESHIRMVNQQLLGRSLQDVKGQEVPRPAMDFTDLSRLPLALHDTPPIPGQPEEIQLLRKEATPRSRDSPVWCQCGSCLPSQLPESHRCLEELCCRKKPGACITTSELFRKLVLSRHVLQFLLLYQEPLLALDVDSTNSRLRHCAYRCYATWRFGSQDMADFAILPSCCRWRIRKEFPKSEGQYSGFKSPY

remaining activity at 10 µM [%]	SMILES
49.5	Cc1cccc(C(=O)N2CCc3c(ncnc3-c3cnn(C)c3)C2)c1Cl [Example 6, 7-[(2-Chloro-3-methylphenyl)carbonyl]-4-(1-methyl-1H-pyrazol-4-yl)-5,6,7,8-tetrahydropyrido[3,4-d]pyrimidine]
100	Cc1nc2c(c(-c3c(C)noc3C)n1)CCN(C(=O)c1cccc(C(F)(F)F)c1Cl)C2 [Example 46, 7-{[2-Chloro-3-(trifluoromethyl)phenyl]carbonyl}-4-(3,5-dimethylisoxazol-4-yl)-2-methyl-5,6,7,8-tetrahydropyrido[3,4-d]pyrimidine]
64.7	Cc1nc2c(c(-c3ccn(CCF)n3)n1)C[C@H](C)N(C(=O)c1cccc(C(F)(F)F)c1Cl)C2 (single isomer, unassigned) [Example 125, (S*)-(2-chloro-3-(trifluoromethyl)phenyl)(4-(1-(2-fluoroethyl)-1H-pyrazol-3-yl)-2,6-dimethyl-5,6-dihydropyrido[3,4-d]pyrimidin-7(8H)-yl)methanone]
0.7	CC1c2ncnc(-c3ccn[nH]3)c2CCN1C(=O)c1ccc(Cl)c(F)c1Cl (stereo not shown) [Example 121]
2.7	Cc1nc2c(c(-c3ccn[nH]3)n1)CC(C)N(C(=O)c1ccc(Cl)cc1Cl)C2 (stereo not shown) [Example 83, (2,4-dichlorophenyl)(2,6-dimethyl-4-(1H-pyrazol-5-yl)-5,6-dihydropyrido[3,4-d]pyrimidin-7(8H)-yl)methanone]
17.3	Cc1nc2c(c(-c3ccn[nH]3)n1)CCN(C(=O)c1cccc(C(F)(F)F)c1F)C2 [Example 51, 7-{[2-Fluoro-3-(trifluoromethyl)phenyl]carbonyl}-2-methyl-4-(1H-pyrazol-5-yl)-5,6,7,8-tetrahydropyrido[3,4-d]pyrimidine]
12.9	Cc1nc2c(c(-c3[nH]ncc3C(F)(F)F)n1)CCN(C(=O)c1cccc(Cl)c1Cl)C2 [Example 40, 7-[(2,3-Dichlorophenyl)carbonyl]-2-methyl-4-[4-(trifluoromethyl)-1H-pyrazol-5-yl]-5,6,7,8-tetrahydropyrido[3,4-d]pyrimidine]
9.9	O=C(c1cccc(C(F)(F)F)c1Cl)N1CCc2c(ncnc2-c2ccnn2C2CCCCO2)C1 (stereo not shown) [Example 17, 7-{[2-Chloro-3-(trifluoromethyl)phenyl]carbonyl}-4-[1-(tetrahydro-2H-pyran-2-yl)-1H-pyrazol-5-yl]-5,6,7,8-tetrahydropyrido[3,4-d]pyrimidine]
7.1	Cc1nc2c(c(-c3ccc[nH]3)n1)CCN(C(=O)c1cccc(C(F)(F)F)c1Cl)C2 [Example 45, 7-{[2-Chloro-3-(trifluoromethyl)phenyl]carbonyl}-2-methyl-4-(1H-pyrrol-2-yl)-5,6,7,8-tetrahydropyrido[3,4-d]pyrimidine]
21	Cc1nc2c(c(-c3ccccn3)n1)CCN(C(=O)c1cccc(C(F)(F)F)c1Cl)C2 [Example 30, 7-{[2-Chloro-3-(trifluoromethyl)phenyl]carbonyl}-2-methyl-4-pyridin-2-yl-5,6,7,8-tetrahydropyrido[3,4-d]pyrimidine]
22.5	Cc1nc2c(c(-c3ccn[nH]3)n1)CC(C)N(C(=O)c1cccc(C(F)(F)F)c1F)C2 (stereo not shown) [Example 74, (2,6-dimethyl-4-(1H-pyrazol-5-yl)-5,6-dihydropyrido[3,4-d]pyrimidin-7(8H)-yl)(2-fluoro-3-(trifluoromethyl)phenyl)methanone]
13.2	CCc1nc2c(c(-c3ccn[nH]3)n1)CC(C)N(C(=O)c1cccc(C(F)(F)F)c1Cl)C2 (stereo not shown) [Example 98, (2-chloro-3-(trifluoromethyl)phenyl)(2-ethyl-6-methyl-4-(1H-pyrazol-5-yl)-5,6-dihydropyrido[3,4-d]pyrimidin-7(8H)-yl)methanone]
10.8	CN(C)c1nc2c(c(-c3ccccc3)n1)CCN(C(=O)c1cccc(Cl)c1Cl)C2 [Example 25, 7-[(2,3-Dichlorophenyl)carbonyl]-N,N-dimethyl-4-phenyl-5,6,7,8-tetrahydropyrido[3,4-d]pyrimidin-2-amine]
18.4	Cc1nc2c(c(-c3ccn[nH]3)n1)CC(C)N(C(=O)c1ccc(F)c(Cl)c1Cl)C2 (stereo not shown) [Example 80, (2,3-dichloro-4-fluorophenyl)(2,6-dimethyl-4-(1H-pyrazol-5-yl)-5,6-dihydropyrido[3,4-d]pyrimidin-7(8H)-yl)methanone]
10.2	Cc1nc2c(c(-c3ccn[nH]3)n1)CC(C)N(C(=O)c1cccc(C(F)(F)F)c1Cl)C2 (stereo not shown) [Example 56, 7-{[2-Chloro-3-(trifluoromethyl)phenyl]carbonyl}-2,6-dimethyl-4-(1H-pyrazol-5-yl)-5,6,7,8-tetrahydropyrido[3,4-d]pyrimidine]
9.8	Cc1cccc(C(=O)N2CCc3c(ncnc3-c3ccn[nH]3)C2)c1C [Example 9, 7-[(2,3-Dimethylphenyl)carbonyl]-4-(1H-pyrazol-5-yl)-5,6,7,8-tetrahydropyrido[3,4-d]pyrimidine]
13.6	CC(C)c1nc2c(c(-c3ccn[nH]3)n1)CC(C)N(C(=O)c1cccc(C(F)(F)F)c1Cl)C2 (stereo not shown) [Example 101, (2-chloro-3-(trifluoromethyl)phenyl)(2-isopropyl-6-methyl-4-(1H-pyrazol-5-yl)-5,6-dihydropyrido[3,4-d]pyrimidin-7(8H)-yl)methanone]
9.3	Cc1nc2c(c(-c3ccn[nH]3)n1)CCN(C(=O)c1cccc(C(F)(F)F)c1C)C2 [Example 52, 2-Methyl-7-{[2-methyl-3-(trifluoromethyl)phenyl]carbonyl}-4-(1H-pyrazol-5-yl)-5,6,7,8-tetrahydropyrido[3,4-d]pyrimidine]

Biological target: rat P2X7 (Rattus norvegicus (Rat), UniProt Q64663)
Sequence (Q64663 whole entry): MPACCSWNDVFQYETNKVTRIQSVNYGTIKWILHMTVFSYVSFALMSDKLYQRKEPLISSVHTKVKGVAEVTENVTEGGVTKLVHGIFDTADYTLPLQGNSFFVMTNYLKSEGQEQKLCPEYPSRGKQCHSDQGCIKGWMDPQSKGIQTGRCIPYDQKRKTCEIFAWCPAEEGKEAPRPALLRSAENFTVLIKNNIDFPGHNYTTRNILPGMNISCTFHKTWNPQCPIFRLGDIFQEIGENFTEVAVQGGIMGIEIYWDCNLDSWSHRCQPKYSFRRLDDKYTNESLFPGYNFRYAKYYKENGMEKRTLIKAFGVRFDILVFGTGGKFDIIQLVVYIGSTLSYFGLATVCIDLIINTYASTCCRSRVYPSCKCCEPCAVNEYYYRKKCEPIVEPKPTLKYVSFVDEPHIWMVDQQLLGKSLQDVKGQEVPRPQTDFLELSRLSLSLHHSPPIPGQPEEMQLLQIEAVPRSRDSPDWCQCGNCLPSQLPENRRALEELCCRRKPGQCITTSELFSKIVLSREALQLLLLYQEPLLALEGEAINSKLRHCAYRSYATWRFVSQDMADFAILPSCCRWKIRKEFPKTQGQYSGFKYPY
Experiment: Ca2+ flux (FLIPR) in 1321N1 cells expressing recombinant rat P2X7 channel
Format: cell-based
Conditions: 250 μM BzATP, Calcium-4 dye
Procedure: 1321N1 cells expressing the recombinant human, rat or mouse P2X7 channel was cultured in HyQ DME/(HyClone/Dulbecco's Modified Eagle Medium) high glucose supplemented with 10% Fetal Bovine Serum (FBS) and appropriate selection marker. Cells were seeded at a density of 25000 cells/well (96-well clear bottom black walled plates) in 100 μl volume/well. On the day of the experiment, cell plates were washed with assay buffer, containing (in mM): 130 NaCl, 2 KCl, 1 CaCl2, 1 MgCl2, 10 HEPES, 5 glucose; pH 7.40 and 300 mOs. After the wash, cells were loaded with the Calcium-4 dye (Molecular Device) and incubated in the dark for 60 minutes. Test compounds were prepared at 250× the test concentration in neat DMSO. Intermediate 96-well compound plates were prepared by transferring 1.2 μL of the compound into 300 μL of assay buffer. A further 3× dilution occurred when transferring 50 μL/well of the compound plate to 100 μL/well in the cell plate. Cells were incubated with test compounds and dye for 30 minutes. […] The fluorescence change was measured 180 seconds after adding the agonist.

IC50 [nM]	SMILES
132	Cc1nc2c(c(-c3ccn[nH]3)n1)C[C@@H](C)N(C(=O)c1ccc(F)cc1Cl)C2 (single isomer, unassigned) [Example 91, (R*)-(2-chloro-4-fluorophenyl)(2,6-dimethyl-4-(1H-pyrazol-5-yl)-5,6-dihydropyrido[3,4-d]pyrimidin-7(8H)-yl)methanone]
1510	C[C@H]1c2ncnc(-c3ccn[nH]3)c2CCN1C(=O)c1ccc(F)c(Cl)c1Cl (single isomer, unassigned) [Example 120, (S*)-(2,3-dichloro-4-fluorophenyl)(8-methyl-4-(1H-pyrazol-5-yl)-5,6-dihydropyrido[3,4-d]pyrimidin-7(8H)-yl)methanone]
5960	Cc1nc2c(c(-c3ccn[nH]3)n1)C[C@H](C)N(C(=O)c1ccc(F)cc1Cl)C2 (single isomer, unassigned) [Example 92, (S*)-(2-chloro-4-fluorophenyl)(2,6-dimethyl-4-(1H-pyrazol-5-yl)-5,6-dihydropyrido[3,4-d]pyrimidin-7(8H)-yl)methanone]
9.1	C[C@@H]1c2ncnc(-c3ccn[nH]3)c2CCN1C(=O)c1cccc(C(F)(F)F)c1Cl (single isomer, unassigned) [Example 113, (R*)-(2-chloro-3-(trifluoromethyl)phenyl)(8-methyl-4-(1H-pyrazol-5-yl)-5,6-dihydropyrido[3,4-d]pyrimidin-7(8H)-yl)methanone]
28.4	C[C@@H]1c2ncnc(-c3ccn[nH]3)c2CCN1C(=O)c1ccc(F)c(Cl)c1Cl (single isomer, unassigned) [Example 119, (R*)-(2,3-dichloro-4-fluorophenyl)(8-methyl-4-(1H-pyrazol-5-yl)-5,6-dihydropyrido[3,4-d]pyrimidin-7(8H)-yl)methanone]
7.9	Cc1nc2c(c(-n3nccn3)n1)CCN(C(=O)c1cccc(C(F)(F)F)c1Cl)C2 [Example 47, 7-{[2-Chloro-3-(trifluoromethyl)phenyl]carbonyl}-2-methyl-4-(2H-1,2,3-triazol-2-yl)-5,6,7,8-tetrahydropyrido[3,4-d]pyrimidine]
8.8	Cc1nc2c(c(-c3ccn[nH]3)n1)C[C@@H](C)N(C(=O)c1cccc(Cl)c1Cl)C2 (single isomer, unassigned) [Example 68, (R*)-(2,3-dichlorophenyl)(2,6-dimethyl-4-(1H-pyrazol-5-yl)-5,6-dihydropyrido[3,4-d]pyrimidin-7(8H)-yl)methanone]
938	Cc1nc2c(c(-c3ccn[nH]3)n1)C[C@H](C)N(C(=O)c1cccc(Cl)c1Cl)C2 (single isomer, unassigned) [Example 69, (S*)-(2,3-dichlorophenyl)(2,6-dimethyl-4-(1H-pyrazol-5-yl)-5,6-dihydropyrido[3,4-d]pyrimidin-7(8H)-yl)methanone]
166	C[C@H]1c2ncnc(-c3ccn[nH]3)c2CCN1C(=O)c1cccc(C(F)(F)F)c1Cl (single isomer, unassigned) [Example 114, (S*)-(2-chloro-3-(trifluoromethyl)phenyl)(8-methyl-4-(1H-pyrazol-5-yl)-5,6-dihydropyrido[3,4-d]pyrimidin-7(8H)-yl)methanone]
> 10000	Cc1cccc(C(=O)N2CCc3c(ncnc3-c3ccn[nH]3)C2)c1Cl [Example 8, 7-[(2-Chloro-3-methylphenyl)carbonyl]-4-(1H-pyrazol-5-yl)-5,6,7,8-tetrahydropyrido[3,4-d]pyrimidine]
